Assay results published in patent US20100166727A1, “S-Adenosylmethionine And Methylthioadensosine In Chemoprevention And Treatment Of Colon Polyps And Cancer” (UNIVERSITY OF SOUTHERN CALIFORNIA, priority 2007, published 2010).
pIC50: −log10 of the molar value.

Experiments:
[1] = Stability of SAMe and MTA in culture medium without cells and in water; format: physicochemical; conditions: culture medium at 37° C., linear regression
Description: FIG. 12. […] SAMe (A) and MTA (B) levels were measured in culture medium without cells with starting SAMe concentrations ranging from 1 to 5 mM and MTA concentration at 1 mM.
To test whether the mitogens-induce increase in. MAT2A is to provide increased SAMe necessary for polyamine synthesis in growing cells, SAMe and polyamine levels were measured following treatment of HT-29 cells with mitogens.

MAT2β = assay: Colonic MAT2β mRNA in mice fed SAMe or MTA; format: in vivo; conditions: 150 mg/kg/d SAMe, 6 days
Description: (§1) FIG. 30. Effects of oral SAMe and MTA on colonic mRNA levels of MAT2A, MAT2 β, and […]. Mice were fed SAMe (150 to 450 mg/kg/d) or MTA (75 or 150 mg/kg/d) in drinking water for 6 days. Colonic mucosa was scrapped off and gene expression measured by real-time PCR.

c-FLIP [2] = assay: c-FLIP expression and caspase 8 activation in RKO cells; format: cell-based, human; conditions: 6 hrs, with concomitant caspase 8 activation
Description: FIG. 27. […] RKO cells were treated with SAMe (0.25-5 mM) or MTA (0.25-2 mM) for 6 hrs and c-FLIP isoform mRNA levels were measured using real-time PCR (A) and protein levels of c-FLIP and caspase 8 by Western blots (B).

RKO cells [3] = assay: TRAIL-induced apoptosis in RKO cells (Annexin V with FACS); format: cell-based, human; conditions: 24 hours
Description: FIG. 28. MTA sensitizes RKO cells to TRAIL-induced apoptosis. RKO cells were treated with 1 mM MTA, […] 5-FU, or 10 ng/ml TRAIL alone or in combination for 24 hours. Apoptosis was determined by Annexin V with FACS.

[4] = tested on: ornithine decarboxylase (ODC); assay: ODC expression by real-time PCR in HT-29 cells; format: cell-based, human; conditions: 6 hrs
cFLIPL = assay: Colonic cFLIPL mRNA in mice fed SAMe or MTA; format: in vivo; conditions: oral, 6 days
Description: as §1

c-FLIP [5] = assay: c-FLIP mRNA level by real-time PCR in HT-29 cells; format: cell-based, human; conditions: SAMe 2 mM, MTA 1 mM, 6 hrs, mean±SE
RKO cells [6] = assay: Apoptosis in RKO cells (HOECHST staining, Annexin V); format: cell-based, human; conditions: by 24 hrs, RKO cells
Description: Apoptosis was assessed by HOECHST staining (34). Briefly, RKO cells were grown on coverslips and treated with RNAi#1 for 24 hrs and cells were fixed with paraformaldehyde and stained with 8 μg/ml HOECHST 33258 dye for 30 min. Cells with bright, fragmented, condensed nuclei were identified as apoptotic cells using the Nikon Eclipse TE300 fluorescent microscope. At least 5 random fields (at ×300) were counted.
In these experiments the total treatment duration was limited to 16 hrs to avoid the apoptotic effect. […] Apoptosis was measured by Hoechst staining or Annexin V and propidium iodide staining on flow cytometry.

Bcl-xL = Bcl-xL mRNA level in HT-29 cells; format: cell-based, human; conditions: SAMe 2 mM, 6 hrs
Description: SAMe and MTA induce apoptosis in liver cancer cells by the mitochondrial pathway (14). […] In liver cancer cells, SAMe and MTA induced selectively expression of Bcl-xs, a pro-apoptotic protein (67). We examined whether the same occurs in HT-29 cells. After 6 hrs of MTA (1 mM) treatment, Bcl-xL mRNA level fell by 53% (47±4% of control, results are mean±SE from 4 experiments, p<0.0005). […] This makes these agents particularly attractive in targeting colon cancer cells.

HT-29 cells = assay: Polyamine levels in HT-29 cells; format: cell-based, human; conditions: 6 hrs
Description: HT-29 and RKO cells were obtained from the Cell Culture Core of the USC Liver Disease Research Center and grown according to instructions provided by the American Type Culture Collection (ATCC, Rockville, Md.). Prior to treatment with growth factors, SAMe or MTA, medium was changed to 0.1% FBS overnight.
Cellular SAMe and MTA levels were measured (51) and polyamine levels were determined (52).

[7] = tested on: spermine synthase (SPM syn); assay: SPM syn expression by real-time PCR in HT-29 cells; format: cell-based, human; conditions: 6 hrs
MAT II = MAT II (Rattus norvegicus, UniProt P18298); conditions: cited from earlier work
MAT II, sequence (P18298 whole entry): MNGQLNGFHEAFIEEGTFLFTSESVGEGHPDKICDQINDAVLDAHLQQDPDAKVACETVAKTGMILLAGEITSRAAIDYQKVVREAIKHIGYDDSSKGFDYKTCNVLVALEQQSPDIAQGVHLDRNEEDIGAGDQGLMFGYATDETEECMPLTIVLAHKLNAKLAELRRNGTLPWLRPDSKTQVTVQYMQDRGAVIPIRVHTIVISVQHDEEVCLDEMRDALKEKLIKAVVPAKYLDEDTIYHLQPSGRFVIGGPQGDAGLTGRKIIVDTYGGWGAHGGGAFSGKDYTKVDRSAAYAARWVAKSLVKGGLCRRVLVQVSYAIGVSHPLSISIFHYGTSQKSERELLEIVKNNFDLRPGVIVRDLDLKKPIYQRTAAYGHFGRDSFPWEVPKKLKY
MAT II, sequence (Q5U2R0 whole entry partner): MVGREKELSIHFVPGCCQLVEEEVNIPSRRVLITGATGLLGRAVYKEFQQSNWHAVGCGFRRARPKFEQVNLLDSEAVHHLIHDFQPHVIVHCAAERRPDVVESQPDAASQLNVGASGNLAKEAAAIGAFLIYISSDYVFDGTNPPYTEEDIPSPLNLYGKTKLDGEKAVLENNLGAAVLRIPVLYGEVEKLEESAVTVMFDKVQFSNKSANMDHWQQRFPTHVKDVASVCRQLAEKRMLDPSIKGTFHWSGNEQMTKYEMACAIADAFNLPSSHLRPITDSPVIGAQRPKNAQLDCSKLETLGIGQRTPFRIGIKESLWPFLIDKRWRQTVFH

## C[S+](CC[C@H](N)C(=O)O)C[C@H]1O[C@@H](n2cnc3c(N)ncnc32)[C@H](O)[C@@H]1O (some centres unmarked) [SAMe, S-adenosylmethionine]
[1]
  rate of conversion from SAMe to MTA: 0.013 mM per hour per mM SAMe
MAT2β
  inhibition of MAT2β expression: 50%
c-FLIP [2]
  c-FLIP expression: lowered c-FLIP expression
RKO cells [3]
  TRAIL-induced apoptosis: sensitized RKO cells to TRAIL-induced apoptosis
[4]; SAMe 2 mM
  ODC expression: 1.1 ± 0.07 fold of control
[4]; SAMe 5 mM
  ODC expression: 0.8 ± 0.04 fold of control
cFLIPL
  cFLIPL expression: inhibited cFLIPL expression
c-FLIP [5]
  c-FLIP mRNA level: 70±2 % of control
RKO cells [6]
  apoptosis: induced apoptosis in a dose-dependent manner
Bcl-xL
  Bcl-xL mRNA level: did not have an effect
HT-29 cells; SAMe 2 mM
  Putrescine: 0.06 ± 0.01 nmol/mg protein
  Spermidine: 2.37 ± 0.02 nmol/mg protein
  Spermine: 12.39 ± 2.86 nmol/mg protein
HT-29 cells; SAMe 5 mM
  Putrescine: 0.01 ± 0.01 nmol/mg protein
  Spermidine: 1.90 ± 0.18 nmol/mg protein
  Spermine: 13.21 ± 2.58 nmol/mg protein
[7]; SAMe 2 mM
  SPM syn expression: 1.1 ± 0.02 fold of control
[7]; SAMe 5 mM
  SPM syn expression: 1.0 ± 0.01 fold of control
MAT II; MAT II
  Inhibition by SAMe: Yes
MAT II; read-out: IC50, inhibition of MAT II
  pIC50: 4.22
